According to patent US20140295012A1, “LATENT HUMAN IMMUNODEFICIENCY VIRUS REACTIVATION” (priority 2011, published 2014):
Read-outs that look alike come from different tables or passages of the source. Where a SMILES comes first, the peptide text is derived from it. The star is where a group is joined. Cbz = O=C(OCc1ccccc1)*

Tests used:
Format in all cases: cell-based
[1] = test system: latently HIV-1 infected CA5 T cells; settings: for priming effect on HIV-1 reactivation by sub-optimal dose of HRF: CA5 cells pretreated with increasing concentrations; for effect of higher concentrations on HIV-1 reactivation triggered by HRF or TNF-α: correlated with high levels of cytotoxicity
Method: (§1) Infection levels in the cell cultures were monitored by flow cytometric analysis of EGFP expression. Flow cytometric analysis was performed on a GUAVA EasyCyte (Millipore; Billerica, Mass.), or a LSRII (Becton & Dickinson; Franklin Lakes, N.J.).
Bacterial growth. Bacteria from various sources were isolated on TSA II agar plates containing 5% sheep blood. Bacterial isolates were then grown in RPMI 1640 medium supplemented with 10% FBS. After two days of incubation at 37° C. bacteria were pelleted and resuspended in RPMI medium to an optical density (OD600) of 8, aliquoted and frozen at −80° C. Unless otherwise indicated, Massilia timonae was grown in RPMI 1640 medium supplemented with 10% FBS. Typically, medium was inoculated with Massilia timonae from frozen stocks to an OD600 of 0.01. After 48 hours at 37° C., the culture was centrifuged at 3200 g to separate bacteria from the culture medium. Bacteria were resuspended in fresh medium to an OD600 of 8 and frozen to be used as references and stock cultures. The supernatant was then centrifuged at 10,000 g for 20 minutes and sterilized by passage through a 0.2 μm PVDF filter with low protein binding ability. HRF activity was determined by its ability to reactivate latent HIV-1 infection in CA5 cells. Only supernatants of which 6 μl reactivated infection in at least 60% of CA5 cells were used to study HRF properties.
Flow cytometry. Infection levels in the cell cultures were monitored by flow cytometric (FCM) analysis of GFP expression. FCM analysis was performed on a GUAVA EasyCyte (GUAVA Technologies, Inc.; Millipore; Billerica, Mass.) and a BD FACSCalibur or a LSRII (Becton & Dickinson; Franklin Lakes, N.J.). Cell sorting experiments were performed using a FACSAria™ Flow Cytometer (Becton&Dickinson). Data analysis was performed using either CellQuest (Becton&Dickinson) or GUAVA Express (GUAVA Technologies, Inc.).
To identify the optimal concentration of dactinomycin, CA5 T cells were pretreated with increasing concentrations of dactinomycin (0.0001 and 1 μg/ml), and then left untreated or stimulated with a sub-optimal concentration of HRF or TNF-α. Representative results for stimulation with HRF are depicted in FIG. 3. The chosen HRF concentration has only minimal HIV-1 reactivating effect by itself (15% reactivation over background). Twenty four hours after activator addition, levels of HIV-1 reactivation were determined as the percentage of GFP-positive cells using flow cytometric analysis, which allowed for the simultaneous determination of cell viability. […] Optimal pretreatment time was 18 hours. Maximum reactivation effects were seen 48 hours after stimulation.

HIV-1 LTR = test: Tat-independent activation of integrated LTR-GFP construct in NOMI reporter T cells; settings: 24 hours
Method: (§2) FIGS. 6A-6C show HRF triggers suboptimal functional induction of NF-κB dependent gene expression. […] The HIV-1 reactivating kinetics were determined by stimulating CA5 T cells with optimal concentrations of HRF, phorbol 12-myristate 13-acetate (PMA) and tumor necrosis factor-α (TNF-α) and analyzing HIV-1 reactivation as a function of EGFP-expression over a period of 48 hours. Data for all agents are depicted as the percentage of EGFP-positive cells in the total cell population. […] To test the ability of HRF to mediate Tat-independent activation of the HIV-1 LTR, NOMI cells (HIV-1 reporter cell line with an integrated LTR-EGFP construct) were stimulated with increasing concentrations of PMA (0.01-10 ng/ml), TNF-α (0.003-30 μg/ml) and HRF supernatant (0.3-100 μl). The level of LTR-induction was then measured as EGFP-expression detectable after 24 hours as determined by flow cytometric analysis. Arrows indicate the concentrations at which the respective stimulus would have triggered full HIV-1 reactivation in the latently HIV-1 infected CA5 T cell line. […] 293T cells were transfected with several NF-κB dependent promoter constructs and then stimulated with either TNF-α (10 μg/ml) or HRF (25 μl). Promoter induction was measured as total EGFP expression. (NF-κB:pNF-κB-d2EGFP; LTR:HIV-1 LTR-GFP; IL-8:pIL-8 GFP; TNF:human TNF-GFP; MSCV:murine stem cell virus LTR driven GFP; no NF-κB responsive elements).
As the NF-κB pathway has been recognized as vital to HIV-1 activation, the ability of HRF to trigger NF-κB activation was investigated. It was initially determined that HRF had the ability to stimulate Tat independent activation of an integrated LTR-GFP construct in NOMI reporter T cells.

[2] = test system: NF-κB dependent promoters in 293T cells; test: NF-κB dependent promoter constructs transfected into 293T cells (EGFP expression)
Method: as §2
The utilized EGFP reporter virus HIV-1 NLENG1-IRES has been described elsewhere (Kutsch et al., J. Virol. 76:8776-86 (2002); Levy et al., Proc. Natl. Acad. Sci. USA 101:4204-9 (2004)). The reporter plasmid pNF-κB-d2EGFP was purchased from Clontech (Mountain View, Calif.). The LTR-GFP construct and the IL-8 reporter construct have been described earlier (Choi et al., Mol. Cell. Biol. 22:724-36 (2002)). The TNF-promoter construct was generated by cloning the human TNF-α promoter element defined by primer pair 5′-BglII; 5′-[…] […]-3′ (SEQ ID NO:2) and 3′-AgeI; 5′-[…] […]-3′ (SEQ ID NO:3) into pd2EGFP (Clontech). MSCV-GFP was generated by cloning the EGFP-gene into retroviral pMSCV-puro vector (Clontech).

[3] = test system: latently HIV-1 infected CA5 T cells
[4] = test system: latently HIV-1 infected reporter T cell lines; settings: four latently infected reporter T cell lines; culture supernatant
Method: FIGS. 1A and 1B show culture supernatants from Massilia timonae reactivate latent HIV-1 infection. […] Untreated control cells and HRF-treated cells were subjected to flow cytometric analysis to determine enhanced green fluorescent protein (EGFP) expression as a direct and quantitative marker of HIV-1 expression 24 hours post stimulation. FSC/SSC dot plots are represented to evaluate cell viability as a function of changes in the FSC (cell size)-SSC (granularity) phenotype of the cells. FIG. 1B is a histogram showing the reproducibility of the observed HIV-1 reactivation. Three independent preparations of HRF (batches HRF1-3) on four different latently infected T cell lines (5F3, 8E12, CA5 and 12D4) were tested. The percentage of EGFP positive cells following stimulation is depicted in the histogram. Cell culture supernatants of Pseudomonas aeruginosa cultures, grown under similar conditions, were used as specificity controls.
as §1

[5] = test system: latently HIV-1 infected monocytic THP89GFP cells; test: HIV-1 reactivation in latently infected monocytic THP89GFP cells
[6] = test system: chronically actively infected T cell lines (JNLG#35 and JNLG#44); test: Active HIV-1 transcription in chronically actively infected T cell lines JNLG#35 and JNLG#44 (GFP MCF); settings: 48 hours
Method: Changes in HIV-1 transcription levels were determined after 48 hours by measuring GFP mean channel fluorescence intensity (GFP MCF). GFP MCF was plotted over the drug concentration for dactinomycin (FIG. 12A), the DNA intercalators daunorubicin (DM) (FIG. 12B) and rebeccamycin (RM) (FIG. 12C), as well as the transcription inhibitors ICRF-193 (FIG. 12D), DRB (FIG. 12E) and α-amanitin (FIG. 12F). The size of symbols indicates the respective cell viability in the sample (size range adjusted to 5-95%).
For this purpose, each of the compounds was titrated over a relevant range of concentrations on two chronically actively infected T cell lines (JNLG#35 and JNLG#44). These clonal cell lines are infected with a GFP-reporter virus. Forty eight hours after addition of the compounds, the effect of each compound on HIV-1 transcription was determined by flow cytometric analysis quantifying GFP mean channel fluorescence intensity (MCF).

[7] = test system: latently HIV-1 infected J89GFP T cells; test: HIV-1 reactivation / priming in latently HIV-1 infected J89GFP T cells (GFP, flow cytometry, HTS); settings: 10 ng/ml PMA; three J89GFP populations
Method: Flow cytometry. Infection levels in the cell cultures were monitored by flow cytometric (FCM) analysis of GFP expression. […] Cell sorting experiments were performed using a FACSAria™ Flow Cytometer (Becton&Dickinson). Data analysis was performed using either CellQuest (Becton&Dickinson) or GUAVA Express (GUAVA Technologies, Inc.).

TNF-α
reactivation ([1]; sub-optimal dose of TNF-α alone): 32% | Tat-independent activation of integrated LTR-GFP construct (GFP expression) (HIV-1 LTR): stimulated Tat-independent activation | GFP expression driven by NF-κB responsive promoter constructs (IL-8, TNF-α, HIV-1 LTR, three consensus NF-κB sites) [2]: efficiently induced | GFP expression of construct under control of murine stem cell virus LTR (no NF-κB responsive element) [2]: Neither TNF-α nor HRF influenced GFP expression

CC(C)C[C@@H](C=O)NC(=O)[C@H](CC(C)C)NC(=O)[C@H](CC(C)C)NC(=O)OCc1ccccc1 [MG132] (Cbz-Leu-Leu-Leu-aldehyde)
priming effect on HIV-1 reactivation by sub-optimal dose of HRF [1]: did not exhibit any priming effect

OC[C@H]1O[C@@H](n2cnc3cc(Cl)c(Cl)cc32)[C@H](O)[C@@H]1O [DRB, 5,6 dichloro-beta-D-ribofuranosylbenzimidazole]
effect of higher concentrations on HIV-1 reactivation triggered by HRF or TNF-α [1]: inhibit HIV-1 reactivation

CC(=O)O[C@@]12C[C@@H](C)[C@@]3(O)[C@@H](C=C(CO)C[C@]4(O)C(=O)C(C)=C[C@@H]34)[C@@H]1C2(C)C [prostratin]
interaction with bexarotene [3]: interact with bexarotene to reactivate latent HIV-1 infection

lipopolysaccharide
HIV-1 reactivation [4]: only reactivated HIV-1 infection in the latently HIV-1 infected monocytic THP89GFP cells | HIV-1 reactivation [5]: reactivated HIV-1 infection

CC[C@@]1(O)C(=O)OCc2c1cc1n(c2=O)Cc2cc3ccccc3nc2-1 [camptothecin]
priming effect on HIV-1 reactivation by sub-optimal dose of HRF [1]: None of the inhibitors exerted a priming effect

C=C(c1ccc(C(=O)O)cc1)c1cc2c(cc1C)C(C)(C)CCC2(C)C [bexarotene]
effect with bryostatin on latent HIV-1 infection ([3]; bexarotene overnight pretreatment, CA5 T cells): synergistic effect | priming of latent HIV-1 infection for reactivation by a second stimulus ([3]; pretreatment 2 hours or overnight): primed latent HIV-1 infection for reactivation by a second stimulus in a synergistic manner

CC[C@H](C)[C@@H]1NC(=O)CNC(=O)[C@@H]2Cc3c([nH]c4cc(O)ccc34)[S+]([O-])C[C@@H](NC(=O)CNC1=O)C(=O)N[C@@H](CC(N)=O)C(=O)N1C[C@H](O)C[C@H]1C(=O)N[C@@H]([C@@H](C)[C@@H](O)CO)C(=O)N2 (stereo in doubt) [α-amanitin]
priming effect on HIV-1 reactivation by sub-optimal dose of HRF [1]: None of the inhibitors exerted a priming effect | priming effect on HIV-1 reactivation by sub-optimal dose of HRF ([1]; listed as α-aminitin): did not exhibit any priming effect | effect of higher concentrations on HIV-1 reactivation triggered by HRF or TNF-α [1]: inhibit HIV-1 reactivation

CO[C@H]1[C@H](O)[C@@H](O)[C@H](n2c3c(Cl)cccc3c3c4c(c5c6cccc(Cl)c6[nH]c5c32)C(=O)NC4=O)O[C@@H]1CO [rebeccamycin]
priming effect on HIV-1 reactivation by sub-optimal dose of HRF [1]: not reproduced | effect on active HIV-1 infection / transcription (GFP MCF) [6]: boosted active HIV-1 transcription

COc1cccc2c1C(=O)c1c(O)c3c(c(O)c1C2=O)C[C@@](O)(C(C)=O)C[C@@H]3O[C@H]1C[C@H](N)[C@H](O)[C@H](C)O1 [daunorubicin]
priming effect on HIV-1 reactivation by sub-optimal dose of HRF [1]: not reproduced | priming effect on HIV-1 reactivation by sub-optimal dose of HRF ([1]; listed as Dauno): did not exhibit any priming effect | effect on active HIV-1 infection / transcription (GFP MCF) [6]: boosted active HIV-1 transcription

O=C1[O][Pt]2([NH][C@@H]3CCCC[C@H]3[NH]2)[O]C1=O [oxaliplatin]
priming effect on HIV-1 reactivation by sub-optimal dose of HRF [1]: not reproduced

CC(=O)NCCCCCCNC(C)=O [HMBA, Hexamethylene bisacetamide]
optimal concentration as HIV-1 priming agent prior to onset of drug mediated toxicities [1]: 3 to 10 mM | HIV-1 reactivation (cells) ([3]; 3 mM): 15% | HIV-1 reactivation (cells) ([3]; 9 mM): 35% | compound toxicity ([3]; 9 mM): onset of compound toxicity | HIV-1 reactivation levels ([3]; HMBA alone, overall): < 40% | reactivation ([3]; combination of HMBA and TNF-α): 81% | reactivation ([3]; optimal dose of HMBA alone): 27% | priming for full reactivation by sub-optimal TNF-α ([3]; sub-toxic concentrations): relatively potent at priming latent HIV-1 infection

CCCCCCCCCCCCCC(=O)O[C@@H]1[C@@H](C)[C@@]2(O)[C@@H](C=C(CO)C[C@]3(O)C(=O)C(C)=C[C@@H]23)[C@@H]2C(C)(C)[C@]12OC(C)=O [PMA, phorbol 12-myristate 13-acetate]
Maximum achievable HIV-1 reactivation levels [7]: 90±3% | Tat-independent activation of integrated LTR-GFP construct (GFP expression) (HIV-1 LTR): stimulated Tat-independent activation
